Test: OMRI of rat after MCAO and reperfusion with injected TEMPOL
Parameters: species or system Wistar rat
Conditions: following ischemia/reperfusion in vivo, imaged with OMRI
Protocol: A 3D OMRI process can be performed using a variation of a balanced steady state free precession (b-SSFP) pulse sequence, for example, such as described in Sarracanie M et al. MRM 2013 DOI: 10.1002/mrm.24705. To achieve sensitivity of b-SSFP-based OMRI to free radical concentration, an NMR/ESR coil setup can be used. For one in vivo experiment, a single loop ESR coil 400 was arranged inside a solenoid NMR coil 402, as illustrate din FIG. 4. Under anesthesia, MCAO occlusion was performed in a 3 month old Wistar rat by insertion of filament via external carotid artery. Following 75 min MCAO and 60 min reperfusion, 3.6 μl/gbw of 300 μM TEMPOL was injected into the carotid artery after which the animal was sacrificed and OMRI imaging begun.
The OMRI enhancement image may be computed from a ratio of OMRI to MRI magnitude. […] The phase of the OMRI image in FIG. 6 provides sensitive contrast even in cases where the radical concentration is very low and the Overhauser enhancement may be small.

CC1(C)CC(O)CC(C)(C)N1[O] [TEMPOL, 4-hydroxy-2,2,6,6-tetramethylpiperidin-1-oxyl]
crossing the BBB: crossing the BBB

Reference: patent US20170000377A1, “SYSTEM AND METHOD FOR IMAGING FREE RADICALS” (THE GENERAL HOSPITAL CORPORATION, priority 2014, published 2017)
